Assay results as given in US8119681B2, “2-[1-phenyl-5-hydroxy or methoxy-4alpha-methyl-hexahydrocyclopenta [ƒ]indazole-5-YL]ethyl phenyl derivatives as glucocorticoid receptor ligands” (Merck Sharp & Dohme Corp., priority 2006, dated 2012).

Molecular target: T1, human GR (Homo sapiens, UniProt P04150)
T1 sequence (P04150 1-777): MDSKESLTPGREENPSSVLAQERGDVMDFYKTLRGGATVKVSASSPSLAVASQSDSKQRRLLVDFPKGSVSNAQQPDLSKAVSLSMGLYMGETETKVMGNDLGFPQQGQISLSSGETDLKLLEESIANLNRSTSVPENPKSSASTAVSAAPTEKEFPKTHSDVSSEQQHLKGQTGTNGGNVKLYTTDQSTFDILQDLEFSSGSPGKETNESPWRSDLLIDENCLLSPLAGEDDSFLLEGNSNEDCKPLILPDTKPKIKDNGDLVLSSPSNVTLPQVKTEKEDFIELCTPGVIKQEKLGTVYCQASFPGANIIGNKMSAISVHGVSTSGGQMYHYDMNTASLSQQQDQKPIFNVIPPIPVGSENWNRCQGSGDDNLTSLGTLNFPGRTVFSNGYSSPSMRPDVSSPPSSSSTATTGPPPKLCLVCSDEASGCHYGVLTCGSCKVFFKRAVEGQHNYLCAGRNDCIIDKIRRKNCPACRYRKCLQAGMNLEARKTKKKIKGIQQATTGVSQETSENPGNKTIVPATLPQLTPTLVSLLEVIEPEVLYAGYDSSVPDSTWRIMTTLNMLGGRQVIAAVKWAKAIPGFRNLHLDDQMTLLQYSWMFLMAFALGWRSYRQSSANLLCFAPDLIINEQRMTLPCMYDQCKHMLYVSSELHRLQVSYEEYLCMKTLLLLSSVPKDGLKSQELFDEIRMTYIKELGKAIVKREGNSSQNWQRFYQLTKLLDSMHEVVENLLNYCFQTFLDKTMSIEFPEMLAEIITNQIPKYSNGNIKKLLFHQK
Experiment: Transrepression Assay (GITAR), TNFα-β-lactamase reporter gene in U937 cells
Type: cell-based
Design: U937 cells contain an endogenous glucocorticoid receptor (GR); endogenous in cells; host or cells: U937 cells stably transfected with the TNF-α promoter/β-lactamase reporter only
Conditions: U-937, read-out: maximal activity in the transrepression assay
Text: Transrepression Assay (GITAR)
This assay assesses the ability of test compounds to control transcription from the TNFα-β-lactamase reporter gene in U937 cells, a human myelomonocytic leukemia cell line that naturally expresses the human GR. The assay measures compound dependent-repression of the TNFa promoter linked to a reporter gene.
The human U937 cells that had been stably transfected with the TNF-α promoter driving β-lactamase are used for this assay. U937 cells contain an endogenous glucocorticoid receptor (GR). […] 50,000 cells/well are plated in 96 well black-walled plates the day of assay. Test compounds are added 10 μL/well, and cells are incubated at 37° C. for 30˜45 min. For assaying compounds, first dilute 1:10 in DMSO to make 1 mM, then further dilute 1:100 in medium to make 10× stock prior to adding to the cells. Add 50 ng/ml PMA (Sigma, cat# P8139) 10 μL/well to a final concentration 5 ng/ml, and 1 μg/ml LPS (Sigma, cat# L4130) 10 μL/well to a final concentration 100 ng/ml. Incubate cells at 370 C overnight for ˜18 hr. PMA is stored frozen as 100 μg/ml stock in DMSO. Dilute 1:10 in DMSO for a working stock of 10 μg/ml and store at −20 C. For assaying, dilute the 10 μg/ml working stock 1:200 in medium to make a 10× solution (50 ng/ml). Store frozen LPS at 1 mg/ml in PBS, dilute 1:1000 in medium to make 10× (1 μg/ml) for the assay. Add 6× loading buffer (CCF2-AM) 20 μL/well, and incubate at room temperature for 70˜90 min. […] The activity repressed by 100 nM dexamethasone alone is set as 100% activity.

Row | SMILES | Emax [%]
1 | CCNC(=O)Oc1ccccc1CC[C@]1(O)CCC2=Cc3c(cnn3-c3ccc(F)cc3)C[C@@]21C [Example 18, 2-{2-[(4αS,5R)-1-(4-fluorophenyl)-5-hydroxy-4α-methyl-1,4,4α,5,6,7-hexahydrocyclopenta[f]indazol-5-yl]ethyl}phenyl ethylcarbamate] | 5 to 100

Same assay, conditions: U-937; 100 nM dexamethasone = 100% activity; read-out: maximal activity in the transrepression assay

Row | SMILES | Emax [%]
2 | C[C@]12Cc3cnn(-c4ccc(F)cc4)c3C=C1CC[C@@]2(O)CCc1ccccc1C(=O)O [Example 1, 2-{2-[(4αS,5R)-1-(4-Fluorophenyl)-5-hydroxy-4α-methyl-1,4,4α,5,6,7-hexahydrocyclopenta[f]indazol-5-yl]ethyl}benzoic acid] | 5 to 100
3 | C[C@]12Cc3cnn(-c4ccc(F)cc4)c3C=C1CC[C@@]2(O)CCc1ccccc1CNC(=O)C1CC1 [Example 4] | 5 to 100
4 | CCOC(=O)NCc1ccccc1CC[C@]1(O)CCC2=Cc3c(cnn3-c3ccc(F)cc3)C[C@@]21C [Example 6, Ethyl(2-(2-[(4αS,5R)-1-(4-fluorophenyl)-5-hydroxy-4α-methyl-1,4,4α,5,6,7-hexahydrocyclopenta(f)indazol-5-yl]ethyl)benzyl)carbamate] | 5 to 100
5 | C[C@]12Cc3cnn(-c4ccc(F)cc4)c3C=C1CC[C@@]2(O)CCc1ccccc1C1(NS(=O)(=O)C2CC2)CC1 [Example 7, N-[1-(2-{2-[(4αS,5R)-1-(4-Fluorophenyl)-5-hydroxy-4α-methyl-1,4,4α,5,6,7-hexahydrocyclopenta[f]indazol-5-yl]ethyl}phenyl)cyclopropyl]cyclopropanesulfonamide] | 5 to 100
6 | C[C@@H](NS(=O)(=O)C1CC1)c1ccccc1CC[C@]1(O)CCC2=Cc3c(cnn3-c3ccc(F)cc3)C[C@@]21C [Example 8, N-[(1R)-1-(2-{2-[(4αS,5R)-1-(4-Fluorophenyl)-5-hydroxy-4α-methyl-1,4,4α,5,6,7-hexahydrocyclopenta[f]indazol-5-yl]ethyl}phenyl)ethyl]cyclopropanesulfonamide] | 5 to 100
7 | CCNC(=O)OCc1ccccc1CC[C@]1(O)CCC2=Cc3c(cnn3-c3ccc(F)cc3)C[C@@]21C [Example 9] | 5 to 100
8 | C[C@]12Cc3cnn(-c4ccc(F)cc4)c3C=C1CC[C@@]2(O)CCc1ccccc1-c1ccc(F)nc1 [Example 10, (4αS,5R)-1-(4-fluorophenyl)-5-{2-[2-(6-fluoropyridin-3-yl)phenyl]ethyl}-4α-methyl-1,4,4α,5,6,7-hexahydrocyclopenta[f]indazol-5-ol] | 5 to 100
9 | CCOC(=O)Nc1ccccc1CC[C@]1(O)CCC2=Cc3c(cnn3-c3ccc(F)cc3)C[C@@]21C [Example 12, ethyl (2-{2-[(4αS,5R)-1-(4-fluorophenyl)-5-hydroxy-4α-methyl-1,4,4α,5,6,7-hexahydrocyclopenta[f]indazol-5-yl]ethyl}phenyl)carbamate] | 5 to 100
10 | CCNC(=O)Nc1ccccc1CC[C@]1(O)CCC2=Cc3c(cnn3-c3ccc(F)cc3)C[C@@]21C [Example 13, N-ethyl-N′-(2-{2-[(4αS,5R)-1-(4-fluorophenyl)-5-hydroxy-4α-methyl-1,4,4α,5,6,7-hexahydrocyclopenta[f]indazol-5-yl]ethyl}phenyl)urea] | 5 to 100
11 | C[C@]12Cc3cnn(-c4ccc(F)cc4)c3C=C1CC[C@@]2(O)CCc1ccccc1O [Example 16, (4αS,5R)-1-(4-fluorophenyl)-5-[2-(2-hydroxyphenyl)ethyl]-4α-methyl-1,4,4α,5,6,7-hexahydrocyclopenta[f]indazol-5-ol] | 5 to 100
12 | CCOC(=O)Oc1ccccc1CC[C@]1(O)CCC2=Cc3c(cnn3-c3ccc(F)cc3)C[C@@]21C [Example 17, Ethyl-(2-(2-[(4αS,5R)-1-(4-fluorophenyl)-5-hydroxy-4α-methyl-1,4,4α,5,6,7-hexahydrocyclopenta(f)indazol-5-yl]ethyl)phenyl)carbonate] | 5 to 100
13 | C[C@]12Cc3cnn(-c4ccc(F)cc4)c3C=C1CC[C@@]2(O)CCc1ccccc1C#N [Example 20, 2-{2-[(4αS,5R)-1-(4-fluorophenyl)-5-hydroxy-4α-methyl-1,4,4α,5,6,7-hexahydrocyclopenta[f]indazol-5-yl]ethyl}benzonitrile] | 5 to 100
14 | C[C@]12Cc3cnn(-c4ccc(F)cc4)c3C=C1CC[C@@]2(O)CCc1ccccc1C=O [Example 21, 2-{2-[(4αS,5R)-1-(4-Fluorophenyl)-5-hydroxy-4α-methyl-1,4,4α,5,6,7-hexahydrocyclopenta[f]indazol-5-yl]ethyl}benzaldehyde] | 5 to 100
15 | C[C@]12Cc3cnn(-c4ccc(F)cc4)c3C=C1CC[C@@]2(O)CCc1ccccc1S(N)(=O)=O [Example 22, 2-{2-[(4αS,5R)-1-(4-fluorophenyl)-5-hydroxy-4α-methyl-1,4,4α,5,6,7-hexahydrocyclopenta[f]indazol-5-yl]ethyl}benzenesulfonamide] | 5 to 100
16 | CCOC1(OCC)CN(C(=O)c2ccccc2CC[C@]2(O)CCC3=Cc4c(cnn4-c4ccc(F)cc4)C[C@@]32C)C1 [Example 24, (4αS,5R)-5-(2-{2-[(3,3-diethoxyazetidin-1-yl)carbonyl]phenyl}ethyl)-1-(4-fluorophenyl)-4α-methyl-1,4,4α,5,6,7-hexahydrocyclopenta[f]indazol-5-ol] | 5 to 100
17 | CC(C)(C)CNC(=O)c1ccccc1CC[C@]1(O)CCC2=Cc3c(cnn3-c3ccc(F)cc3)C[C@@]21C [Example 25, N-(2,2-dimethylpropyl)-2-{2-[(4αS,5R)-1-(4-fluorophenyl)-5-hydroxy-4α-methyl-1,4,4α,5,6,7-hexahydrocyclopenta[f]indazol-5-yl]ethyl}benzamide] | 5 to 100
18 | CCNC(=O)c1ccccc1CC[C@]1(O)CCC2=Cc3c(cnn3-c3ccccc3)C[C@@]21C [Example 27, N-ethyl-2-{2-[(4αS,5R)-5-hydroxy-4α-methyl-1-phenyl-1,4,4α,5,6,7-hexahydrocyclopenta[f]indazol-5-yl]ethyl}benzamide] | 5 to 100
19 | CCNC(=O)c1ccccc1CC[C@]1(O)CCC2=Cc3c(cnn3-c3cccc(F)c3)C[C@@]21C [Example 36, N-ethyl-2-{2-[(4αS,5R)-1-(3-fluorophenyl)-5-hydroxy-4α-methyl-1,4,4α,5,6,7-hexahydrocyclopenta[f]indazol-5-yl]ethyl}benzamide] | 5 to 100
20 | CC1(NC(=O)c2ccccc2CC[C@]2(O)CCC3=Cc4c(cnn4-c4ccc(F)c(F)c4)C[C@@]32C)CC1 [Example 39, 2-{2-[(4αS,5R)-1-(3,4-difluorophenyl)-5-hydroxy-4α-methyl-1,4,4α,5,6,7-hexahydrocyclopenta[f]indazol-5-yl]ethyl}-N-(1-methylcyclopropyl)benzamide] | 5 to 100
21 | C=CCN(C)C(=O)c1ccccc1CC[C@]1(O)CCC2=Cc3c(cnn3-c3ccc(F)cc3)C[C@@]21C [Example 50, N-allyl-2-{2-[(4αS,5R)-1-(4-fluorophenyl)-5-hydroxy-4α-methyl-1,4,4α,5,6,7-hexahydrocyclopenta[f]indazol-5-yl]ethyl}-N-methylbenzamide] | 5 to 100
22 | C=C(F)CNC(=O)c1ccccc1CC[C@]1(O)CCC2=Cc3c(cnn3-c3ccc(F)cc3)C[C@@]21C [Example 53, 2-{2-[(4αS,5R)-1-(4-fluorophenyl)-5-hydroxy-4α-methyl-1,4,4α,5,6,7-hexahydrocyclopenta[f]indazol-5-yl]ethyl}-N-(2-fluoroprop-2-en-1-yl)benzamide] | 5 to 100
23 | C[C@]12Cc3cnn(-c4ccc(F)cc4)c3C=C1CC[C@@]2(O)CCc1ccccc1C(=O)N1CC[C@H](F)C1 [Example 54, (4αS,5R)-1-(4-fluorophenyl)-5-[2-(2-{[(3S)-3-fluoropyrrolidin-1-yl]carbonyl}phenyl)ethyl]-4α-methyl-1,4,4α,5,6,7-hexahydrocyclopenta[f]indazol-5-ol] | 5 to 100
